Experimental data taken from patent US12485117B2, “Compositions and methods for activating signaling through the CB1 cannabinoid receptor for treating and preventing diseases and disorders characterized by abnormal cellular accumulation of sphingolipids such as sphingomyelin” (Wylder Nation Foundation, priority 2018, dated 2025).

Tests used:
[1] = tested on: permeabilized ASMko neurons; test: Lysenin staining of SM in intracellular compartments of permeabilized ASMko neurons; format: cell-based, mouse; conditions: 1 hour at 50 μM (FIG. 9)
Procedure: Statistical significance Student's t-test, *P<0.05, n=3 independent cultures.
To determine whether SM hydrolysis induced by FAAH inhibitors was taking place not only at the cell surface, but also in intracellular compartments, we performed staining with lysenin, a worm toxin that specifically binds to SM, in permeabilized ASMko neurons non-treated or treated with anandamide, URB, PF-04457845 or JNJ for 1 hour at 50 μM.

ASMko cultured neurons [2] = test: TUNEL assay of neuronal death in ASMko cultured neurons; format: cell-based, mouse; conditions: 50 μM for 1 hour
Procedure: FIG. 10B is a graph showing mean±SEM percentage of apoptotic cells, measured by TUNEL assay, with respect to the positive control in which the cells were treated with H202.
The percentage of dying neurons showing DNA fragmentation was 5-8% in the treated ASMko cultures similar to the non-treated ones.

ASMko cultured neurons [3] = test: MAP2 immunofluorescence of dendrites in ASMko cultured neurons; format: cell-based, mouse; conditions: 50 μM for 1 hour
wt and ASMko mice [4] = test: Y maze test (hippocampal dependent memory); format: in vivo, mouse; conditions: 0.3 mg/kg every three days
Procedure: FIGS. 13A-13C show the effect of PF-04457845 treatment on various behavioral functions. […] (n=14; **p<0.01, *p<0.05).
(§1) Treatment started at 7 weeks of age and continued for 8 weeks. PF-04457845 was dissolved in 0.9% NaCl and delivered through oral gavage at a dose of 0.3 mg/kg every three days. We chose this dose based on the studies published by Ahn et al., (J Pharm Exp Ther 2011). Control groups received same volume of 0.9% NaCl without PF-04457845.
Hippocampal dependent memory was monitored by the Y maze test (FIG. 13A). During the first training trial (8 min) the mice were only allowed to explore two arms (the initial arm and one other arm), maintaining the third arm (novel arm) closed. After 1 hour, the mice were placed back in the same starting arm with free access to all three arms for 5 min.
The time spent in the novel arm was counted and expressed as a percentage of the total exploration time. Non-treated ASMko mice spent less time in the novel arm than wt mice, indicative of impaired memory.

wt and ASMko mice [5] = test: Sphingomyelin levels by enzymatic assay in tissue extracts after 8-week treatment; format: in vivo, mouse; conditions: 0.3 mg/kg every three days, 8 weeks
Procedure: as §1
Sphingomyelin levels were measured by enzymatic assays in extracts of different brain areas and in liver, spleen, and lung (FIG. 14).

Purkinje cells = test: Purkinje cell death by Calbindin1 staining in the cerebellum; format: in vivo, mouse; conditions: 0.3 mg/kg every three days
Procedure: FIGS. 15A-15D show representative images of Purkinje cells from wildtype and ASMko mice treated or not treated with PF-04457845.
as §1
Purkinje cell death was analyzed by Calbindin1 staining in the cerebellum of wt and ASMko treated or not with PF-04457845 (FIG. 15A). Loss of Purkinje cells was prominent in non-treated ASMko mice compared to wt. […] PF-04457845 treatment had no effect on Purkinje cell survival in wt mice. We also analyzed Lysosomal size by staining Purkinje cells of the cerebellum for Lamp1 expression in samples from wt and ASMko mice treated or not treated with PF-04457845 (FIG. 15B). Lysosomal size was increased by an average 45% in the non-treated ASMko compared to wt mice consistent with sphingomyelin accumulation in these organelles. This alteration was prevented to a significant extent (35%) in the ASMko mice treated with PF.

astrocytes = test: Astrocytes by GFAP immunofluorescence; format: in vivo, mouse; conditions: 0.3 mg/kg every three days
Procedure: Representative images of astrocytes stained for GFAP (red) in the cerebellum, hippocampus and cortex of wt and ASMko mice treated or not with PF-04457845. […] Graphs show mean±SEM GFAP intensity in arbitrary units (n=7, **p<0.01, *p<0.05).
as §1
Brain inflammation was determined by analysis of glial cells in the cerebellum, hippocampus and cortex. The number and morphology of microglia was analyzed by immunofluorescence staining with the marker iba-1 (FIG. 16). […] PF-04457845 treatment had no effect in microglia of wt mice. The amount of astrocytes was analyzed by immunofluorescence with the marker GFAP (FIG. 17). […] PF-04457845 treatment had no effect in astrocytes of wt mice (FIG. 17).

wt and ASMko mice [6] = test: Survival analysis (life span); format: in vivo, mouse
Procedure: as §1
Behavioral analyses were performed in the last 2 weeks of treatment while still administering the drug. Then, half of the mice were sacrificed for biochemical and histological analysis and the other half continued receiving the treatment to monitor life span.
Seven mice per condition remained under treatment to monitor life span. While the mean survival of non-treated ASMko mice was 29 weeks, PF-04457845 treatment extended ASMko mice mean life span to 38 weeks (FIG. 19).

pediatric ASMD patient = test: Single patient preliminary clinical trial: liver enzymes ALT and AST; format: in vivo, human
Description: Based on the compelling safety and efficacy data from the ASMko mouse model, we submitted an expanded access request to the Food and Drug Administration for a single patient preliminary clinical trial to assess the effect of PF-04457845 administration to a single pediatric ASMD patient. The FDA approved the trial, and it is presently ongoing. The patient received their first does of PF-04457845 (which is being administered via NG-tube delivery) nearly one year ago now, and the patient will continue to be monitored for improvement in ASMD-related symptoms and/or markers.
Although clinical trial data is not available to us yet, it is worth noting as per the normal standard of care for this patient, weekly or biweekly monitoring of liver enzymes alanine aminotransferase (ALT) and aspartate transaminase (AST) has been ongoing since before initiation of the trial and these analyses are ongoing. Elevated blood levels of AST and ALT are seen in 50%-75% of ASMD patients (McGovern M, et al., Orphanet J Rare Dis. 2017; 12: 41) and are indicative of liver damage caused by the progression of the disease. […] Moreover, ALT/AST ratios appear stable.

[7] = in vivo; cited from earlier work
[8] = cited from earlier work
[9] = about one year of treatment via NG-tube, preliminary

O=C(Nc1cccnn1)N1CCC(=Cc2cccc(Oc3ccc(C(F)(F)F)cn3)c2)CC1 [PF-04457845]
SM levels in intracellular compartments (lysenin staining) [1]: significantly reduced SM levels | neuronal death as assessed by TUNEL (ASMko cultured neurons [2]): did not induce neuronal death | morphology, length, appearance of dendrites (MAP2) (ASMko cultured neurons [3]): did not alter the morphology, length or homogeneous appearance of dendrites | time in the novel arm of Y maze (memory) (wt and ASMko mice [4]; ASMko mice): restored memory function | time in the novel arm of Y maze, treated versus non-treated (wt and ASMko mice [4]; wt mice): No differences | sphingomyelin levels in cerebellum (wt and ASMko mice [5]; ASMko mice): significant reduction of sphingomyelin | sphingomyelin levels in cortex (wt and ASMko mice [5]; ASMko mice): significant reduction of sphingomyelin | sphingomyelin levels in hippocampus (wt and ASMko mice [5]; ASMko mice): significant reduction of sphingomyelin | sphingomyelin levels in liver (wt and ASMko mice [5]; ASMko mice): significant reduction of sphingomyelin | sphingomyelin levels in lung (wt and ASMko mice [5]; ASMko mice): non-statistically significant trend towards a decrease | sphingomyelin levels in spleen (wt and ASMko mice [5]; ASMko mice): significant reduction of sphingomyelin | sphingomyelin levels in tissues (wt and ASMko mice [5]; wt mice): did not alter sphingomyelin levels | Purkinje cell death (Calbindin1) (Purkinje cells; ASMko mice, cerebellum): prevented cell death in a significant percentage of cells | Purkinje cell survival (Purkinje cells; wt mice): no effect | GFAP intensity in cerebellum, hippocampus and cortex (astrocytes; ASMko mice): reduced GFAP intensity in all areas but the effect was significant only in the cerebellum | astrocytes (GFAP) (astrocytes; wt mice): no effect | lifespan extended (wt and ASMko mice [6]; ASMko mice): 31% | mean life span (wt and ASMko mice [6]; ASMko mice, continued treatment 0.3 mg/kg every three days): 38 weeks | survival (wt and ASMko mice [6]; wildtype mice): did not affect | ALT/AST ratios (pediatric ASMD patient; about one year of treatment): stable | ALT, current value relative to pre-treatment (pediatric ASMD patient; [9]): approximately half | AST, current value relative to pre-treatment (pediatric ASMD patient; [9]): approximately half | tolerability (pediatric ASMD patient; about one year of treatment, preliminary): well tolerated without signs of liver toxicity | brain blood barrier crossing [7]: can cross the brain blood barrier | tolerability of much higher doses in healthy humans ([8]; Li et al., 2011): well tolerated | safety in healthy humans ([8]; Ling et al., BJCP 2011): safety in healthy humans has been already demonstrated | dose sufficient, well tolerated and providing maximal effects on FAAH activity and fatty acid amide elevation ([8]; once daily, healthy humans, Li et al., Br J Clin Pharmacol 2011): 0.5 mg
